Test [1] deals with methicillin-resistant Staphylococcus aureus (DMST20654). The test is described as follows: MIC and MBC by modified broth microdilution. The test is classed as cell-based. As to conditions: MRSA; for MBC / MIC: Staphylococcus aureus. How it is done: (§1) Microorganisms that cause skin infection, such as Staphylococcus aureus (ATTC 25923), Staphylococcus epidermidis (TISTR 517), Cutibacterium acnes (DMST 14916) and methicillin-resistant Staphylococcus aureus (DMST20654), were selected for this study. The isolated compounds were determined for minimum inhibitory concentration (MIC) in a 96-well plate by modified broth microdilution method and minimum bactericidal concentration (MBC). Oxacillin was used as positive controls for S. aureus, S. epidermidis and C. acnes, while vancomycin was used for MRSA.

Test [2] concerns Staphylococcus epidermidis (TISTR 517). The test is described as follows: MIC and MBC by modified broth microdilution. The test is classed as cell-based. As to conditions: S. epidermidis; for MBC / MIC: Staphylococcus epidermidis, TISTR517. Here is the method: as §1
A general note: Broth dilution looks for growth in wells or tubes with falling amounts of substance.

The test system of test [3] is Staphylococcus aureus (ATTC 25923). Nature of the test: MIC and MBC by modified broth microdilution. The test is classed as cell-based. The settings on record: S. aureus; for MBC / MIC: Staphylococcus aureus. Here is the method: as §1
The subject of test [4] is Cutibacterium acnes (DMST 14916). The test is described as follows: MIC and MBC by modified broth microdilution. The test is classed as cell-based. The settings on record: C. acnes. How it is done:
as §1

In test [5] the test system is tyrosinase in B16-F1 melanoma cells. Nature of the test: Intracellular antityrosinase activity. The test is classed as cell-based, murine. As to conditions: 50 µg/mL, 48 h. Here is the method: (§2) The murine B16-F1 melanoma cells (CLS-400122, CLS Cell Lines Service GmbH, Germany) were cultured in Dulbecco’s modified Eagle’s medium, which was supplemented with 10% fetal bovine serum in a humidified incubator at 37 C with 5% CO2. When cells reached 70–80% confluence cell viability, cellular tyrosinase activity and melanin content were measured. The B16-F1 cells were seeded at a density of 3 × 10^5 cells/well on 12-well plates and cultured for 12 h. Cells were treated with test samples and control (0.5% DMSO). After 48 h of incubation, cells were lysed with RIPA and centrifuged at 14,000 rpm for 20 min (4 °C) to separate the cell pellet and supernatant. The supernatant was collected and the protein content was determined by the Bradford method using bovine serum albumin as standard. The supernatant was incubated and 2 mg/mL L-Dopa was added to a 96-well plate at 25 °C for 1 h. After that, optical densities were measured at 492 nm. Then, tyrosinase inhibition was calculated, while the cell pellet was dissolved with 1 M NaOH and incubated at 55 °C for 1 h. Melanin concentration was calculated by comparing the absorbance at 475 nm using a standard curve of synthetic melanin.

In test [6] the test system is MITF, tyrosinase, TRP1 and TRP2 in B16-F1 cells. The test is described as follows: Western blot of melanogenic protein expression. The test is classed as cell-based, murine. As to conditions: 25 and 50 µg/mL. The text has this: The protein content of the supernatant was quantified by the Bradford method using bovine serum albumin as standard. Equal amounts of protein were separated by 40% acrylamide/Bissolution (InvitrogenThermoFisher Scientific, Waltham, MA, USA) and transferred onto nitrocellulose membranes (BIO-RAD Laboratories, Feldkirchen, Germany). The membranes were probed with antibodies against microphthalmia-associated transcription factor; MITF (ThermoFisher Scientific #MA5-16214, Waltham, MA, USA), tyrosinase (ThermoFisher Scientific #35-6000, Waltham, MA, USA), tyrosinase-related protein 1; TRP1 (ThermoFisher Scientific #OSR00085W, Waltham, MA, USA) and tyrosinase-related protein 2; TRP2 (ThermoFisher Scientific #PA5-36485, Waltham, MA, USA). The proteins were detected using an enhanced chemiluminescence kit (BIO-RAD Laboratories, Hercules, CA, USA). Quantitative analysis was performed using a digital imager (UPV UVP, VisionWork^T LS, Image Acquisition & Analysis Software). The method applied was modified from Western Blot analysis for UGT1A family by the co-author, Asst. Prof. Dr. Wandee Udomuksorn, Pharmacology Program, Division of Health and Applied Science, Faculty of Science, Prince of Songkla University, Thailand., Department of Clinical Pharmacology, Flinders Medical Center.
For orientation: A western blot detects proteins with antibodies after separation by electrophoresis.

Another test deals with B16-F1 melanoma cells. Nature of the test: Melanin content. The test is classed as cell-based, murine. The settings on record: 50 µg/mL. How it is done: as §2
For another test, the target named is tyrosinase enzyme. The test is described as follows: Enzymatic antityrosinase activity, Dopachrom method with L-DOPA. The settings on record: for IC50 Values: Experiment of Table 4, reference for the correlation, in µg/mL; for IC50 on tyrosinase inhibitory activity: L-DOPA substrate, pH 6.8, 25 °C. The test is classed as biochemical, mushroom. How it is done: The tyrosinase activity was measured by the Dopachrom method using L-DOPA as a substrate. Briefly, 140 μL phosphate buffer (pH 6.8), 20 μL sample solution, and 20 μL tyrosinase solution (203.3 unit/mL) were mixed at 25 °C for 10 min, after which 20 μL of 0.85 mM L-Dopa was added. The optical density (OD) was measured at 492 nm. After incubation at 25 °C for 20 min, the optical density was measured again.

A further test has as its system tyrosinase. Details: method as in PMID 27598113. The settings on record: cited from earlier work.
The mark [7] stands for this setting: listed as 3, 4, 3′, 5′-tetrahydroxybibenzyl.

The source of these data is publication PMC9952338, “Chemical Constituents from Streblus taxoides Wood with Their Antibacterial and Antityrosinase Activities Plus in Silico Study” (Antibiotics, 2023).

Molecules are shown by their SMILES. In brackets after ≈: the same amount, converted by molar mass. Entries after “also recorded” stand apart in the source; their conditions may differ. Like-named read-outs stand apart in the source and are kept apart here.

`CC(=CCc1c(O)cc(-c2cc3ccc(O)cc3o2)cc1O)CO` [Compound 1, ω-Hydroxymoracin C]: the “Inhibitory effect (in words)” value in test [1], in [2] and in test [3] was “stronger inhibitory effect” each time. For the same molecule, the MBC (as a rule, the smallest concentration meeting the test's criterion for killing) in test [1] (read-out: MBC) was greater than 256 µg/mL; in [2], 32 µg/mL (≈ 98.1 µM); in test [3], 32 µg/mL (≈ 98.1 µM); in test [4], greater than 256 µg/mL. In addition, the MIC (as a rule, the smallest concentration in the dilution series that meets the test's criterion for growth inhibition) was determined as 16 µg/mL (≈ 49 µM) in test [1] (read-out: MIC), 16 µg/mL (≈ 49 µM) in [2], 16 µg/mL (≈ 49 µM) in test [3] and 128 µg/mL (≈ 392 µM) in [4]. In test [5], the Intracellular antityrosinase activity result was “exhibited antityrosinase activity”. In addition, the Melanogenic protein expression result was “downregulated the melanogenic protein expression” in [6] (listed as ω-Hydroxymoracin C); “decreasing microphthalmia-associated transcription factor (MITF), tyrosinase (TYR), tyrosinase-related protein 1 (TRP1) and tyrosinase-related protein 2 (TRP2)” in test [6] (listed as ω-hydroxymoracin C). Besides, the Melanin content result in the test with B16-F1 melanoma cells is “could decrease the melanin content”. For the same molecule, the “IC50 Values” on tyrosinase enzyme is 109.64. For the same molecule, at tyrosinase enzyme, the “IC50 on tyrosinase inhibitory activity” value came out at 109.64 ± 0.89 µg/mL (≈ 336 µM).
With `Oc1cc(O)cc(-c2cc3ccc(O)cc3o2)c1` [Compound 2, moracin M], the “Inhibitory effect (in words)” value in [1], in test [2] and in test [3] was “weak inhibitory effect” throughout. The MBC in [1] (read-out: MBC), in test [2], in test [3] and in [4] was greater than 256 µg/mL each time. The MIC in test [1] (read-out: MIC) is 64 µg/mL (≈ 264 µM); in test [2], 64 µg/mL (≈ 264 µM); in [3], 256 µg/mL (≈ 1060 µM); in test [4], greater than 256 µg/mL. The Intracellular antityrosinase activity entry in test [5] is listed as “exhibited antityrosinase activity”. Also, the Melanogenic protein expression entry in [6] is “decreasing microphthalmia-associated transcription factor (MITF), tyrosinase (TYR), tyrosinase-related protein 1 (TRP1) and tyrosinase-related protein 2 (TRP2); also recorded: downregulated the melanogenic protein expression”. Besides, the Melanin content result in the test with B16-F1 melanoma cells is listed as “could decrease the melanin content”. In addition, the “IC50 Values” against tyrosinase enzyme was 47.34. The “IC50 on tyrosinase inhibitory activity” value against tyrosinase enzyme was 47.34 ± 0.78 µg/mL (≈ 195 µM).
As to `CC(C)=CCc1c(O)cc(-c2cc3ccc(O)cc3o2)cc1O` [Compound 3, moracin C], the “Inhibitory effect (in words)” value in test [1], in [2] and in [3] was “stronger inhibitory effect” throughout. The MBC in test [1] (read-out: MBC) is 64 µg/mL (≈ 206 µM); in test [2], greater than 256 µg/mL; in [3] it was 64 µg/mL (≈ 206 µM); in [4], greater than 256 µg/mL. The MIC in test [1] (read-out: MIC) is 32 µg/mL (≈ 103 µM); in test [2], 128 µg/mL (≈ 412 µM); in test [3] it was 32 µg/mL (≈ 103 µM); in test [4] it was 128 µg/mL (≈ 412 µM). For the same molecule, in [5], the Intracellular antityrosinase activity entry is recorded as “exhibited antityrosinase activity”. Further, in test [6], the Melanogenic protein expression entry was “decreasing microphthalmia-associated transcription factor (MITF), tyrosinase (TYR), tyrosinase-related protein 1 (TRP1) and tyrosinase-related protein 2 (TRP2); also recorded: downregulated the melanogenic protein expression”. Further, in the test on B16-F1 melanoma cells, the Melanin content entry is reported as “could decrease the melanin content”. The “IC50 Values” on tyrosinase enzyme was determined as 128.67. Moreover, the “IC50 on tyrosinase inhibitory activity” value on tyrosinase enzyme is listed as 128.67 ± 1.21 µg/mL (≈ 415 µM).
With `Oc1cc(O)cc(CCc2ccc(O)c(O)c2)c1` [Compound 4, 3,4, 3′, 5′-tetrahydroxybibenzyl], the MBC in [1] (read-out: MBC) was 256 µg/mL (≈ 1040 µM); in [2] it was greater than 256 µg/mL; in test [3], 256 µg/mL (≈ 1040 µM); in test [4], greater than 256 µg/mL. In addition, the minimal inhibitory concentration (MIC) was 64 µg/mL (≈ 260 µM) in test [1] (read-out: MIC), 128 µg/mL (≈ 520 µM) in test [2], 128 µg/mL (≈ 520 µM) in test [3] and greater than 256 µg/mL in test [4]. Also, in test [6] (setting [7]), the Melanogenic protein expression entry is “increasing microphthalmia-associated transcription factor (MITF) and tyrosinase (TYR); also recorded: upregulating the melanogenic protein expression”. Moreover, in the test on B16-F1 melanoma cells (setting [7]), the Melanin content entry was “increased the melanin content; also recorded: increase melanin content”. Moreover, the “IC50 on tyrosinase inhibitory activity” value at tyrosinase enzyme was 35.65 ± 0.98 µg/mL (≈ 145 µM).
As to `Oc1cc(O)cc(/C=C/c2ccc(O)c(O)c2)c1` [Compound 5, piceatannol], the MBC was greater than 256 µg/mL in [1] (read-out: MBC), 128 µg/mL (≈ 524 µM) in test [2], greater than 256 µg/mL in [3] and greater than 256 µg/mL in [4]. In addition, the MIC in [1] (read-out: MIC) was 128 µg/mL (≈ 524 µM); in test [2], 64 µg/mL (≈ 262 µM); in test [3], greater than 256 µg/mL; in test [4] it was greater than 256 µg/mL. The Melanogenic protein expression result in test [6] is “increasing microphthalmia-associated transcription factor (MITF) and tyrosinase (TYR); also recorded: upregulating the melanogenic protein expression”. Also, the Melanin content result in the test on B16-F1 melanoma cells was “increased the melanin content; also recorded: increase melanin content”. For the same molecule, at tyrosinase enzyme, the “IC50 Values” is given as 149.73. The “IC50 on tyrosinase inhibitory activity” value against tyrosinase enzyme came out at 149.73 ± 0.86 µg/mL (≈ 613 µM).
On to `Cc1onc(-c2ccccc2)c1C(=O)N[C@@H]1C(=O)N2[C@@H]1SC(C)(C)[C@@H]2C(=O)O` [Oxa, Oxacillin, reference compound], for which the MBC in test [2] was 0.5 µg/mL (≈ 1.25 µM); in [3], 0.125 µg/mL (≈ 0.311 µM); in test [4] it was 0.5 µg/mL (≈ 1.25 µM). Besides, the values for the MIC in test [2], in test [3] and in test [4] were 0.5 µg/mL (≈ 1.25 µM), 0.125 µg/mL (≈ 0.311 µM) and 0.5 µg/mL (≈ 1.25 µM), respectively.
On to `CN[C@H](CC(C)C)C(=O)N[C@H]1C(=O)N[C@@H](CC(N)=O)C(=O)N[C@H]2C(=O)N[C@H]3C(=O)N[C@H](C(=O)N[C@H](C(=O)O)c4cc(O)cc(O)c4-c4cc3ccc4O)[C@H](O)c3ccc(c(Cl)c3)Oc3cc2cc(c3O[C@@H]2O[C@H](CO)[C@@H](O)[C@H](O)[C@H]2O[C@H]2C[C@](C)(N)[C@H](O)[C@H](C)O2)Oc2ccc(cc2Cl)[C@H]1O` [Van, Vancomycin, reference compound], for which, in [1], the MBC worked out at 0.5 µg/mL (≈ 0.345 µM) and the lowest concentration to inhibit growth (MIC) was 0.125 µg/mL (≈ 0.0863 µM).
As for `CC1(C)C=Cc2c(O)cc(-c3cc4ccc(O)cc4o3)cc2O1` [moracin D], the “Antityrosinase activity (in words)” value in the test with tyrosinase is reported as “did not display antityrosinase activity”.
